Experimental data as given in patent US20110245351A1, “MEDICAL ADHESIVE FOR SURGERY” (BAYER MATERIALSCIENCE AG, priority 2008, published 2011).

Assay: Processing / curing time of the adhesive from prepolymer A-1 and secondary diamine
Format: physicochemical
Details: for Processing time: diamine as curing agent for prepolymer A-1
Method: 1 g of the prepolymer A-1 were stirred well in a beaker with an equivalent quantity of dimethyl 2,2′-(pentane-1,5-diylbis(azandiyl))bis(4-methylpentanoate). Directly after this, the reaction mixture was applied thinly onto the tissue to be glued. […] After 2 mins, the surface of the adhesive was no longer tacky.

[1] = 1 g prepolymer A-1 with equivalent quantity of diamine, applied thinly onto tissue

Row | Compound | Processing time [min] | Curing to a transparent film [1] [min] | Time after which surface of the adhesive was no longer tacky [1] [min]
1 | CCOC(=O)C(C)NCCCCNC(C)C(=O)OCC (stereo not drawn) | 0.7 | – | –
2 | CCOC(=O)C(C)NCCCCCNC(C)C(=O)OCC (stereo not drawn) | 0.55 | – | –
3 | COC(=O)C(Cc1ccccc1)NCCCNC(Cc1ccccc1)C(=O)OC (stereo not drawn) | 4 | – | –
4 | COC(=O)C(Cc1ccccc1)NCCCCCCNC(Cc1ccccc1)C(=O)OC (stereo not drawn) | 4 | – | –
5 | CCC(C)C(NCCCNC(C(=O)OC)C(C)CC)C(=O)OC (stereo not drawn) | 3 | – | –
6 | COC(=O)C(NCCCNC(C(=O)OC)C(C)C)C(C)C (stereo not drawn) | 4 | – | –
7 | COC(=O)C(CC(C)C)NCCCCCNC(CC(C)C)C(=O)OC (stereo not drawn) [Example 2, Dimethyl 2,2′-(pentan-1,5-diylbis(azandiyl))bis(4-methylpentanoate)] | – | ≤ 1 | 2
8 | COC(=O)C(CC(C)C)NCCCCCNC(CC(C)C)C(=O)OC (stereo not drawn) [drawing 17] | 4 | – | –
